# Reference: PMC3927474, “Whole body synthesis rates of DHA from α-linolenic acid are greater than brain DHA accretion and uptake rates in adult rats” (Journal of Lipid Research, 2014)
# Experiment: Balance study: n-3 and n-6 PUFA balance (intake, excretion, accretion, metabolic consumption)
# Type: in vivo, rat
# Conditions: 24 h feces at 8 weeks postweaning, percentage of intake
# Procedure: All procedures were performed in accordance with the policies set out by the Canadian Council on Animal Care and were approved by the Animal Ethics Committee at the University of Toronto. Three Long Evans dams each with 18-day-old male Long Evans pups were ordered from Charles River Laboratories (St. Constant, QC, Canada). Pups were nonlittermates and each dam was housed with pups. Upon arrival, dams were allocated to one of the three diets (described below). When the pups were 21 days old, two pups from each dam were euthanized by high-energy head-focused microwave fixation (4.5 kW for 0.9 s). Brains were removed immediately and stored at -80°C until lipid analysis. Bodies were also stored at -80°C immediately after euthanization until analysis. The brains and bodies of these pups were used to determine the PUFA content of the rats at weaning (i.e., baseline PUFA content). […] For the balance study, the rats were weighed, food intake was determined, and uneaten food was replaced with fresh food on a weekly basis. Rats were euthanized by CO2 asphyxiation. Brains were removed and dissected sagittally. Carcasses and one half brain per rat were stored immediately at -80°C (to be later analyzed for lipid content). […] For the steady-state infusion study and the brain DHA uptake study, a jugular vein catheter was surgically implanted into the rats. […] Carcasses were thawed overnight in a refrigerator at 3°C, cut into pieces, and passed through a #12 hand grinder. After the whole body had passed through the grinder once, the homogenate was mixed together by hand and passed at least one more time through the grinder until the mixture was sufficiently homogeneous. Due to the small size of the pups all of the 21-day-old pup bodies were passed through the grinder together. […] New chloroform was added to the remaining aqueous phase, the mixture was once again centrifuged, and the chloroform layer was extracted and added to the previously extracted chloroform layer. […] One hemisphere was thawed briefly and dissected over ice to separate the brainstem, cerebellum, cortex, hippocampus, striatum, and the rest of the brain. […] The homogenizer was then washed with methanol, which was then transferred to the test tube containing the homogenized brain and KCl. […] The chloroform layer was extracted and new chloroform was added to the aqueous phase. […] At 8 weeks postweaning all the feces produced by a rat in 24 h were collected. […] Mean PUFA excretion (percentage of intake) was determined and applied to all animals to determine PUFA excretion. […] Nu-Check Prep, Elysian, MN) was added to the TLE. […] Samples were injected in […] mode. The injector and detector ports were set at 250°C. […] The carrier gas was helium, set to a constant flow rate of 0.7 ml/min. Peaks were identified by retention times of authentic FAME standards (Nu-Chek Prep). […] The concentrations were expressed on a per gram basis then multiplied by total weight of the tissue to determine the total amount of each fatty acid in the tissue.
compound,measurement,value
"CCCCC/C=C\C/C=C\CCCCCCCC(=O)O [LNA, linoleic acid]",Dietary PUFA excreted in the feces,0.5 ± 0.05%
